Test results from a melting point compilation (Tetko et al.; mined from patent text by program, amines drawn as free bases though some values may be those of a salt).
Non-standard residues stand in square brackets, D forms with d. Residues, ends and D or L forms follow the SMILES beside them. *: point of attachment. Npys = O=[N+]([O-])c1cccnc1S*; Leu(ol) = CC(C)C[C@H](N)CO; Mpa = O=C(O)CCS

| SMILES | melting point [°C] |
| --- | --- |
| CC(C)CCOC(=O)C(C)Oc1cc(-c2nn(C)c(C(F)(F)F)c2Cl)c(F)cc1Cl (stereo not drawn) | 128 |
| N#Cc1cnn(-c2ccc(Cl)c(Cl)c2Cl)c1NC=O | 190 to 192 |
| COc1ccc(C)cc1NC(=O)Nc1ccc(N2CCN(C(=O)Nc3ccc(CO)cc3Cl)CC2)cc1 | 152 to 155 |
| O=C(CCc1ccc(OCCS(=O)(=O)CCOC(c2ccc(Cl)cc2)c2ccc(Cl)cc2)cc1)C(F)(F)F | 98 to 100 |
| Cn1c(CN2CCOCC2)nc([N+](=O)[O-])c1C#N | 112 to 115 |
| CC1(C)CC(=O)c2ccc(Cl)cc2O1 | 63 to 66 |
| CCCc1c(OCCCCc2ccc3c(Cl)c(OC)c(OC)c(Cl)c3c2)ccc(C(=O)O)c1O | 181 to 182 |
| CNc1ccc2c(c1N)C(=O)OC21c2cc(F)c(O)cc2Oc2cc(O)c(F)cc21 | 265 |
| COc1cc(-c2nc(N(C)CCN(C)C)c3c(C)c(C#N)sc3n2)cc(OC)c1OC | 125 to 127 |
| O=c1n(CCCN2CC=C(c3c[nH]c4ccccc34)CC2)nc2ccccn12 | 173 |
| CCCCCCCCCCC(O)COc1ccc(N2CCS(=O)(=O)CC2)cc1 (stereo not drawn) | 84 |
| COc1ccc(-c2nc(C3=CCN(C)CC3)sc2-c2ccc(OC)cc2)cc1 | 131 to 132 |
| Clc1ccc(C(Br)Br)c(C(Br)Br)c1 | 108 to 111 |
| CC(C(=O)O)C1CCCCC1 (stereo not drawn) | 63 to 64 |
| Cc1ccc(-c2c(N)ncnc2Cl)cc1 | 168 to 171 |
| COc1ccc(C2(C#N)CCC(=O)CC2)c2c1OCCO2 | 157 to 161 |
| Nc1sc(-c2ccc(Cl)cc2)c(CN(C2CCCCC2)C2CCCCC2)c1C(=O)c1ccc(Cl)cc1 | 200 to 204 |
| CCCCn1c(C)c(C(=O)NC2CCN(CCc3ccccc3)CC2)c2cc(O)ccc21 | 178 to 181 |
| CC(=O)NNc1ccnc2c(NC(=O)c3c(Cl)cccc3Cl)cc(C)cc12 | 263 to 266 |
| CCc1c2n(c3ccccc13)C(=O)C(Cc1nc[nH]c1C)CC2 (stereo not drawn) | 222 to 224 |
| CC(C)N1CC(COc2cccc3c(=O)[nH]ccc23)OC1=O (stereo not drawn) | 215 to 216 |
| Cc1c(-c2nnn[nH]2)oc2c(c1=O)CSc1ccccc1-2 | 247 to 248 |
| COC(=O)CCC#Cc1cc(Cl)ccc1N | 67 |
| C[C@@H](NS(=O)(=O)c1cccs1)c1cccc(C(=O)c2ccco2)c1 | 105 to 106 |

| SMILES | melting point [°C] |
| --- | --- |
| CC(C)n1cc(-c2nn(-c3cccc(C(F)(F)F)c3)ccc2=O)c(-c2ccccc2)n1 | 138 to 140 |
| O=C1OCc2c(Cl)cccc21 | 80 to 82 |
| COc1cc(Nc2cn(Cc3ccccc3)c(=O)c3ccccc23)cc(OC)c1OC | 162 to 164 |
| O=c1[nH]c2ccccc2c(=O)n1CCN1CCC(c2noc3cc(F)ccc23)CC1 | 253 |
| CN(C)C=Nc1nc(Cl)c2[nH]cnc2n1 | 300 |
| O=Cc1ccc([N+](=O)[O-])cn1 | 66 to 67 |
| C=C1CCC2C3CCC4CC(O)CCC4(C)C3C(N)CC12C (stereo not drawn) | 144 to 149 |
| O=C(c1ccc(Br)cc1)c1cc2c(ccc3ccccc32)oc1=O | 213 to 215 |
| COc1ccc2[nH]c(SC/C=C(\C)CCC=C(C)C)nc2c1 | 113 to 116 |
| CC(=C1SC(=O)NC1=O)c1ccc(OCCOc2c(-c3ccccc3F)n(C)c3ccccc3c2=O)c(Cl)c1 | 220 to 222 |
| NC(=S)Nc1cc[nH]n1 | 130 to 132 |
| COC(=O)C(O)C1OC(n2cnc3c(N)ncnc32)C(O)C1O (stereo not drawn) | 215 to 217 |
| CN(C)c1cc2nc(C(C)(C)C)sc2cc1N | 169 |
| Nc1nc(Cl)c(Cl)c(NCC2(CO)CCC2)n1 | 179 to 181 |
| C=c1oc(=O)c(=O)oc1=C | 44 |
| CCC(CC)N1COCc2c1cc(C)nc2Oc1c(C)cc(C)cc1C | 112 to 114 |
| O=C(Nc1cccc2c1C(=O)c1c-2n[nH]c1-c1ccc(C(=O)N2CCN(c3ccccn3)CC2)s1)NN1CCOCC1 | 201 to 202 |
| CC(C)n1nccc1-c1nn(-c2cccc(C(F)(F)F)c2)ccc1=O | 183 to 184 |
| CCCCc1c(Cl)nc(N)nc1-c1ccsc1 | 154 to 155 |
| FC(F)(F)COc1cccc(-c2ccc3nnn(Cc4ccc5ncccc5c4)c3n2)c1 | 151 to 154 |
| CC1C(=O)N(c2ccc(O)cc2)C(=S)N1c1ccc(Oc2ccccc2)cc1 (stereo not drawn) | 202 to 204 |
| CC(C)[Si](C)(C)CCSCCCNC(=O)n1cc(F)c(=O)[nH]c1=O | 122 to 123 |
| CC(=O)NC[C@H]1CN(c2ccc(N=C=S)c(F)c2)C(=O)O1 | 172 to 176 |

Now from value to molecule:

| melting point [°C] | SMILES |
| --- | --- |
| 165 to 167 | CC(=C(C#N)C(N)=O)c1ccc(Cl)cc1 |
| 182 to 183 | CC(C)n1cnc2c(NCc3cccc(O)c3O)nc(NC[C@@H](C)O)nc21 |
| 80 to 82 | O=C(O)C(Cc1ccc(C(F)(F)F)cc1Br)C(=O)O |
| 230 to 231 | CC(C)=NOCc1nc2c(N)nc3ccccc3c2n1CCNC(=O)NC(C)C |
| 130 to 131 | CCCC(=O)c1cnc2c(C)cccc2c1Nc1ccccc1Cl |
| 168 to 170 | CCOC(=O)NNc1ccc(-c2cccc(C(F)(F)F)c2)nn1 |
| 56 to 58.5 | CCN(CC)CCCNC(=O)N1CCCC(S(=O)(=O)c2ccccc2)C1 (stereo not drawn) |
| 212 to 214 | CCOC(=O)c1oc2cc(O)c(O)cc2c1C |
| 112 to 114 | CCOC(=O)c1cc(C)n(-c2cccc(N(C)C)c2)c1-c1ccccc1 |
| 55 to 57 | C=C1c2c(C)c(OCc3ccccc3)c(C)c(C)c2OC1(C)C |
| 195 to 198 | CCCSc1nc(N)n(-c2nnc(-c3ccccc3O)s2)n1 |
| 203 | COC(=O)c1cccc(-c2nc(C(=O)c3ccc(N)c(C(=O)OC)c3)n3ccccc23)c1 |
| 109 to 112 | CC(C)C[C@@H](CO)NC(=O)[C@H](Cc1c[nH]cn1)NC(=O)[C@H](Cc1ccccc1)NC(=O)CCSSc1ncccc1[N+](=O)[O-] ([Mpa](Npys)FH[Leu(ol)]) |
| 162 to 163 | CC(C)C[C@H](NC(=O)[C@H](CC(=O)OC(C)(C)C)Cc1ccccc1)C(=O)N[C@@H](CC(C)C)[C@@H](O)c1nccs1 |
| 164 to 165 | O=C(c1ccccc1)c1cccc2c1CCCC2C(=O)O (stereo not drawn) |
| 125 | CC(C)(C)OC(=O)NC(C(=O)O)c1ccccc1O (stereo not drawn) |
| 91 to 93 | CCOC(=O)C(OS(N)(=O)=O)c1ccccc1 (stereo not drawn) |
| 137 to 139 | N#Cc1ccc(CCNC(=O)CC(=O)O)cc1 |
| 138 to 139 | CCOC(=O)c1ncc(C)c(-c2ccccc2)c1C(=O)N(CCO)Cc1cc(C(F)(F)F)cc(C(F)(F)F)c1 |
| 138 to 140 | N#Cc1n[nH]c2ccccc12 |
| 52 to 58 | Cc1cc(C)c(Nc2nc(N(C)C)ncc2S(=O)(=O)c2cccc(OCc3ccccc3)c2)c(C)c1 |
| 144 | O=c1c2ccccc2oc2cc(OCC(O)CCl)cc(O)c12 (stereo not drawn) |
| 65 to 67 | Cc1cc(C)c(C(=O)c2ccccc2C)c(O)c1 |
| 111 to 112 | O=C1C(Cl)=C(c2ccccc2)C(=O)c2ccccc21 |
| 141 to 143 | CCn1cc(OS(C)(=O)=O)c(=O)c2ccccc21 |
| 87 to 89 | COC(=O)/C=C/c1c(-c2ccc(F)cc2)cccc1C(C)C |
